Where two headings read alike, the source gives them in different places.
Assays:
[1] = target: T1, human KDR kinase (Homo sapiens, UniProt P35968); assay: KDR Kinase Assay (LanthaScreen TR-FRET enzymatic assay); format: biochemical; conditions: 1.2 nM KDR, 92 μM ATP
T1 construct: purchased Carna 08-191
Experimental: Compounds were tested in a LanthaScreen™ time-resolved fluorescence energy transfer (TR-FRET) enzymatic assay from Invitrogen. The assay used human KDR kinase (Carna 08-191). Test compounds were prepared and diluted in DMSO in 3-fold serial dilutions to 50× of the final testing concentrations. The compounds were then further diluted to 5× by the kinase reaction buffer (50 mM HEPES pH 7.5, 0.0015% Brij-35). The enzymatic reaction for compound testing was performed in a white 384-well polypropylene plate (Corning 3573) with a total reaction volume of 25 μl containing 1.2 nM KDR, 3 μM peptide substrate FAM-P22 (GL Biochem 112393), and 92 μM ATP (Sigma A7699-1G). The assay started with loading RET diluted in kinase reaction buffer to wells, followed by addition of equal volume of 5× compounds for 15-min incubation at the room temperature for pre-treatment. The enzymatic reaction was initiated by addition of mixture of the substrate and ATP prepared in kinase reaction buffer. After incubation at 28° C. for one hour, 25 μl of stopper buffer (a mixture of 100 mM HEPES pH 7.5 buffer, 0.015% Brij-35, 50 mM EDTA and 0.2% of coating reagent 3 (Cliper Lifesciences)) and produce TR-FRET signals. After 30 minutes of incubation at room temperature, the plate was read in a Caliper with the following settings: Excitation 340 nm (30)/Emission1 495 nm (10)/Emission2 520 nm (25). The TR-FRET values were dimensionless numbers that were calculated as the ratio of the acceptor ([…]) signal to the donor (Terbium) signal. Percent of control was calculated as the percentage of compound-treated vs 1% DMSO vehicle-treated. The dose-response curves were generated and the IC50s were calculated by nonlinear sigmoid curve fitting using XLFit.

[2] = system: TT cells; assay: TT Cell Proliferation Assay (WST-8, 8 days); format: cell-based; conditions: growth inhibition in TT cells, read-out: TT Cellular Activity
Experimental: Compounds disclosed herein were tested for the inhibition of RET by a cancer cell proliferation assay commonly known as MTT assay. In this assay, a complete media was prepared by adding 10% fetal bovine serum to RPMI-1640 medium (Life technology). TT cells were added to each of 88 wells of a 96 well plate at a seeding density of 6,000 cells/well/90 μL. The cells were allowed to attach to the plate by incubating at 37° C. for 24 hours. The compound was dissolved in DMSO (SIGMA). A solution of test compound was prepared in complete media by serial dilution to obtain the following concentrations: 50 μM, 15 μM, 5 μM, 1.5 μM, 0.5 μM, 0.15 μM, 0.05 μM, 0.015 μM and 0.005 μM. The test compound solution (10 μL) was added to each of 80 cell-containing wells. The final concentrations of the compound were following: 5 μM, 1.5 μM, 0.5 μM, 0.15 μM, 0.05 μM, 0.015 μM, 0.005 μM, 0.0015 μM and 0.0005 μM. The final concentration of DMSO is 0.5%. To the 8 remaining cell-containing wells, only complete media (containing 0.5% DMSO) was added to form a control group in order to measure maximal proliferation. To the remaining 8 empty wells, complete media was added to for a vehicle control group in order to measure background. The plates were incubated at 37° C. for 8 days. 10 μL WST-8 solution (DOJINDO, Cell Counting KIT-8) was added to each well. The plates were further incubated at 37° C. for 5 hours, and then read for the absorbance using a microplate reader at 450 nm. The IC50 was calculated using GraphPad Prism.

[3] = target: T2, human RET kinase (Homo sapiens, UniProt P07949); assay: RET Kinase Assay (LanthaScreen TR-FRET enzymatic assay); format: biochemical; conditions: 7 nM RET, 23 μM ATP
T2 construct: purchased Carna 08-159
T2 sequence (P07949 29-1114): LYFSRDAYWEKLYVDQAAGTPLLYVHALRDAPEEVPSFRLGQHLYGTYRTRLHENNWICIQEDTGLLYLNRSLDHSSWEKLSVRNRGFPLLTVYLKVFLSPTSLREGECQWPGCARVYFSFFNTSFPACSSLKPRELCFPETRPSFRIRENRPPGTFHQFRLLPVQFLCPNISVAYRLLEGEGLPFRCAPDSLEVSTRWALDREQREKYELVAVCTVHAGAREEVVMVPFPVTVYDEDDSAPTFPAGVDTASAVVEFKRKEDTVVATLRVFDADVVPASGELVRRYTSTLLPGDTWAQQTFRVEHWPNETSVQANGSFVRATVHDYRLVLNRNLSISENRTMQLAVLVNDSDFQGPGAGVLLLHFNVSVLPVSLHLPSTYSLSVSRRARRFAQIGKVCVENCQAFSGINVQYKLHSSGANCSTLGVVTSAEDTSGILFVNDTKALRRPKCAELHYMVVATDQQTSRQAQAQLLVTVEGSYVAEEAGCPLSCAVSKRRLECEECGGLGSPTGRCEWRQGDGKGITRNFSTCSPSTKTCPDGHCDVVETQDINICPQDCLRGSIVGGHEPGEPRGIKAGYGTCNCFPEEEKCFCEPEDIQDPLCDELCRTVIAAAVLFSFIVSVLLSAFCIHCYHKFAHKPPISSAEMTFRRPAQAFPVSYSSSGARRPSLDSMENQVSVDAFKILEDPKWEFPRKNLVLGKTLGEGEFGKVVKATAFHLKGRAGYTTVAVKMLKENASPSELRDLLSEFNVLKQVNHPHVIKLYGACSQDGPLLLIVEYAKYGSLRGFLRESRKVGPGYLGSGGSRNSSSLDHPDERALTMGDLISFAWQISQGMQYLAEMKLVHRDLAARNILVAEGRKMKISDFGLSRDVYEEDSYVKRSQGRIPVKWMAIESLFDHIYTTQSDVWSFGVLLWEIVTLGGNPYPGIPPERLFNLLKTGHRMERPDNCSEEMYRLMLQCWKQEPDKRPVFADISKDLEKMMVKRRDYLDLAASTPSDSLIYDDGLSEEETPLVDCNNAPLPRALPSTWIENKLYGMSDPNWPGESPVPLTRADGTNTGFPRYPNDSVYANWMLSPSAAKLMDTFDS
Experimental: Compounds were tested in a LanthaScreen™ time-resolved fluorescence energy transfer (TR-FRET) enzymatic assay from Invitrogen. The assay used human RET kinase (Carna 08-159). Test compounds were prepared and diluted in DMSO in 3-fold serial dilutions to 50× of the final testing concentrations. The compounds were then further diluted to 5× by the kinase reaction buffer (50 mM HEPES pH 7.5, 0.0015% Brij-35). The enzymatic reaction for compound testing was performed in a white 384-well polypropylene plate (Corning 3573) with a total reaction volume of 25 μl containing 7 nM RET, 3 μM peptide substrate FAM-P2 (GL Biochem 112394), and 23 μM ATP (Sigma A7699-1G). The assay started with loading RET diluted in kinase reaction buffer to wells, followed by addition of equal volume of 5× compounds for 15-min incubation at the room temperature for pre-treatment. The enzymatic reaction was initiated by addition of mixture of the substrate and ATP prepared in kinase reaction buffer. After incubation at 28° C. for one hour, 25 μl of stopper buffer (a mixture of 100 mM HEPES pH 7.5 buffer, 0.015% Brij-35, 50 mM EDTA and 0.2% of coating reagent 3 (Cliper Lifesciences)) and produce TR-FRET signals. After 30 minutes of incubation at room temperature, the plate was read in a Caliper with the following settings: Excitation 340 nm (30)/Emission1 495 nm (10)/Emission2 520 nm (25). The TR-FRET values were dimensionless numbers that were calculated as the ratio of the acceptor ([…]) signal to the donor (Terbium) signal. Percent of control was calculated as the percentage of compound-treated vs 1% DMSO vehicle-treated. The dose-response curves were generated and the IC50s were calculated by nonlinear sigmoid curve fitting using XLFit.

T1 sequence (P35968 20-1356): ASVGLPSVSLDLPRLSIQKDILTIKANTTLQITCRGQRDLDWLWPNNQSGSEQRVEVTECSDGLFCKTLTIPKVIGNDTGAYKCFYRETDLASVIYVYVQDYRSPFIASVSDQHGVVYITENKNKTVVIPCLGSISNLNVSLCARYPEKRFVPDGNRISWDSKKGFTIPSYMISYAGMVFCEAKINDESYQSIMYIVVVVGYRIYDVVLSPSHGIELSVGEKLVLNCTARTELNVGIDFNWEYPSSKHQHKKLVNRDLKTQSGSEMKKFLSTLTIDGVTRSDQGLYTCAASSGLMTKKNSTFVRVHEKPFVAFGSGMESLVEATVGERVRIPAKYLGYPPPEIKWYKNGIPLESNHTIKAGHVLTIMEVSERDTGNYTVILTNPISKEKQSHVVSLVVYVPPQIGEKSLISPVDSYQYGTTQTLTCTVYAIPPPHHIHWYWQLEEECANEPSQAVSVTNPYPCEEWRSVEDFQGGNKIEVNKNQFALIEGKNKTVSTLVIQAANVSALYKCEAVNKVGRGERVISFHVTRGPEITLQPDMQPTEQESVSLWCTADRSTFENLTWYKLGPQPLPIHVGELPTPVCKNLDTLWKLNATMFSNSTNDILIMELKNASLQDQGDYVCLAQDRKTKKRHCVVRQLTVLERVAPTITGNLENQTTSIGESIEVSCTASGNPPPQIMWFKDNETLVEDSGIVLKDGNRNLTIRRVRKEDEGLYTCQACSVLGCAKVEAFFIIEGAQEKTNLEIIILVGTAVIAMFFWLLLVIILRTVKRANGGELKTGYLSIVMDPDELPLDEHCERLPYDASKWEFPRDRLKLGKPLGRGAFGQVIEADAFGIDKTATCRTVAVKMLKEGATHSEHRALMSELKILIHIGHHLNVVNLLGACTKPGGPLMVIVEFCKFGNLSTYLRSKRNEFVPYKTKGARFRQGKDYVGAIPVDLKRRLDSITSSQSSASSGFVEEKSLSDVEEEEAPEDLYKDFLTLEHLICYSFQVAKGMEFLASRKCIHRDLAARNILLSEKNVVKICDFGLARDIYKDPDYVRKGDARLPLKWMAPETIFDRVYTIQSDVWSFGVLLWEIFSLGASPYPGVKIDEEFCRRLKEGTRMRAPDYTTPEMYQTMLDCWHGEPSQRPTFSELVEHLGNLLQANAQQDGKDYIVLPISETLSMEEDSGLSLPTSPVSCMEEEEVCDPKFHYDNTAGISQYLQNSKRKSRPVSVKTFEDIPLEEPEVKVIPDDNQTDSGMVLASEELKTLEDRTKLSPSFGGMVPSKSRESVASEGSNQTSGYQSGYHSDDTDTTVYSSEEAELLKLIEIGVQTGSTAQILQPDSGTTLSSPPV

Structure (SMILES) | IC50 [1] [µM] | IC50 [3] [µM] | IC50 ([2]; Homo sapiens, TT, 192 h) [µM] | IC50 [2] [µM]
COc1cc(-c2ccc(N3C[C@@H]4C[C@@](C)(NC(=O)c5ncccc5Cl)C[C@@H]4C3)nc2)c2c(C#N)cnn2c1 [Example 52, 3-chloro-N-((3aR,5s,6aS)-2-(5-(3-cyano-6-methoxypyrazolo[1,5-a]pyridin-4-yl)pyridin-2-yl)-5-methyloctahydro-cyclopenta[c]pyrrol-5-yl)picolinamide] | 0.05 to 0.1 | ≤ 0.01 | 0.01 to 0.05 | –
Cn1cc(-c2cc(-c3ccc(N4C[C@@H]5[C@@H](CNC(=O)C(C)(C)C)[C@@H]5C4)nc3)c3c(C#N)cnn3c2)cn1 [Example 87, N-(((1R,5S,6s)-3-(5-(3-cyano-6-(1-methyl-1H-pyrazol-4-yl)pyrazolo[1,5-a]pyridin-4-yl)pyridin-2-yl)-3-azabicyclo[3.1.0]hexan-6-yl)methyl)pivalamid] | 0.01 to 0.05 | ≤ 0.01 | ≤ 0.01 | –
COc1ccc(CN[C@H]2[C@@H]3CN(c4ccc(-c5cc(-c6cnn(C)c6)cn6ncc(C#N)c56)cn4)C[C@@H]32)cn1 [Example 33, 4-(6-((1R,5S,6s)-6-(((6-methoxypyridin-3-yl)methyl)amino)-3-azabicyclo[3.1.0]hexan-3-yl)pyridin-3-yl)-6-(1-methyl-1H-pyrazol-4-yl)pyrazolo[1,5-a]pyridine-3-carbonitrile] | 0.01 to 0.05 | ≤ 0.01 | 0.01 to 0.05 | –
Cn1cc(-c2cc(-c3ccc(N4C[C@@H]5[C@@H](CNS(=O)(=O)c6c(F)cccc6Cl)[C@@H]5C4)nc3)c3c(C#N)cnn3c2)cn1 [Example 74, 2-chloro-N-(((1R,5S,6r)-3-(5-(3-cyano-6-(1-methyl-H-pyrazol-4-yl)pyrazolo[1,5-a]pyridin-4-yl)pyridin-2-yl)-3-azabicyclo[3.1.0]hexan-6-yl)methyl)-6-fluorobenzenesulfonamide] | 0.01 to 0.05 | ≤ 0.01 | 0.01 to 0.05 | –
Cn1ccc(-c2cc(-c3cnc(N4C[C@@H]5C[C@@](C)(NC(=O)c6c(F)cccc6Cl)C[C@@H]5C4)cn3)c3c(C#N)cnn3c2)n1 [Example 100, 2-chloro-N-((3aR,5s,6aS)-2-(5-(3-cyano-6-(1-methyl-1H-pyrazol-3-yl)pyrazolo[1,5-a]pyridin-4-yl)pyrazin-2-yl)-5-methyloctahydrocyclopenta[c]pyrrol-5-yl)-6-fluorobenzamide] | 0.01 to 0.05 | ≤ 0.01 | ≤ 0.01 | –
CC(C)C(O)C(=O)N[C@@H]1[C@@H]2CN(c3ccc(-c4cc(-c5cnn(C)c5)cn5ncc(C#N)c45)cc3)C[C@@H]21 (stereo partly drawn) [Example 17, N-((1R,5S,6r)-3-(4-(3-cyano-6-(1-methyl-1H-pyrazol-4-yl)pyrazolo[1,5-a]pyridin-4-yl)phenyl)-3-azabicyclo[3.1.0]hexan-6-yl)-2-hydroxy-3-methylbutanamide] | 0.01 to 0.05 | ≤ 0.01 | 0.01 to 0.05 | –

Now from value to compound, other results behind:

IC50 [1] [µM] | IC50 [3] [µM] | Structure (SMILES) | IC50 ([2]; Homo sapiens, TT, 192 h) [µM] | IC50 [2] [µM]
≤ 0.01 | ≤ 0.01 | Cn1cc(-c2cc(-c3cnc(N4C[C@@H]5C[C@@](C)(NC(=O)c6c(F)cccc6Cl)C[C@@H]5C4)cn3)c3c(C#N)cnn3c2)cn1 [Example 141, 2-chloro-N-((3aR,5s,6aS)-2-(5-(3-cyano-6-(1-methyl-1H-pyrazol-4-yl)pyrazolo[1,5-a]pyridin-4-yl)pyrazin-2-yl)-5-methyloctahydrocyclopenta[c]pyrrol-5-yl)-6-fluorobenzamide] | ≤ 0.01 | –
0.01 to 0.05 | ≤ 0.01 | CC(C)(O)COc1cc(-c2ccc(N3C[C@@H]4CN(S(=O)(=O)c5c(F)cccc5Cl)C[C@@H]4C3)nc2)c2c(C#N)cnn2c1 [Example 92, 4-(6-((3aR,6aS)-5-((2-chloro-6-fluorophenyl)sulfonyl)hexahydropyrrolo[3,4-c]pyrrol-2(1H)-yl)pyridin-3-yl)-6-(2-hydroxy-2-methylpropoxy)pyrazolo[1,5-a]pyridine-3-carbonitrile] | 0.01 to 0.05 | –
0.01 to 0.05 | ≤ 0.01 | CC(C)C(=O)N[C@H]1[C@@H]2CN(c3ccc(-c4cc(-c5cnn(C)c5)cn5ncc(C#N)c45)cn3)C[C@@H]21 [Example 31, N-((1R,5 S,6s)-3-(5-(3-cyano-6-(1-methyl-1H-pyrazol-4-yl)pyrazolo[1,5-a]pyridin-4-yl)pyridin-2-yl)-3-azabicyclo[3.1.0]hexan-6-yl)isobutyramide] | 0.05 to 0.1 | –
≤ 0.01 | ≤ 0.01 | Cn1cc(-c2cc(-c3ccc(N4C[C@@H]5[C@H](C4)[C@H]5NC(=O)c4ncccc4C(F)(F)F)nc3)c3c(C#N)cnn3c2)cn1 [Example 21, N-((1R,5S,6s)-3-(5-(3-cyano-6-(1-methyl-1H-pyrazol-4-yl)pyrazolo[1,5-a]pyridin-4-yl)pyridin-2-yl)-3-azabicyclo[3.1.0]hexan-6-yl)-3-(trifluoromethyl)picolinamide] | 0.01 to 0.05 | –
≤ 0.01 | ≤ 0.01 | Cn1cc(-c2cc(-c3ccc(N4C[C@@H]5[C@H](CNC(=O)OC(C)(C)C)[C@@H]5C4)nc3)c3c(C#N)cnn3c2)cn1 [Example 72, tert-butyl (((1R,5S,6r)-3-(5-(3-cyano-6-(1-methyl-1H-pyrazol-4-yl)pyrazolo[1,5-a]pyridin-4-yl)pyridin-2-yl)-3-azabicyclo[3.1.0]hexan-6-yl)methyl)carbamate] | ≤ 0.01 | –
≤ 0.01 | ≤ 0.01 | Cc1cccc(Cl)c1C(=O)NC[C@@H]1[C@H]2CN(c3ccc(-c4cc(-c5cnn(C)c5)cn5ncc(C#N)c45)cn3)C[C@@H]12 [Example 84, 2-chloro-N-(((1R,5S,6s)-3-(5-(3-cyano-6-(1-methyl-1H-pyrazol-4-yl)pyrazolo[1,5-a]pyridin-4-yl)pyridin-2-yl)-3-azabicyclo[3.1.0]hexan-6-yl)methyl)-6-methylbenzamide] | – | ≤ 0.01
≤ 0.01 | ≤ 0.01 | Cn1cc(-c2cc(-c3ccc(N4C[C@@H]5[C@H](CNC(=O)C(O)c6ccccc6)[C@@H]5C4)nc3)c3c(C#N)cnn3c2)cn1 (stereo partly drawn) [Example 79, N-(((1R,5S,6r)-3-(5-(3-cyano-6-(1-methyl-1H-pyrazol-4-yl)pyrazolo[1,5-a]pyridin-4-yl)pyridin-2-yl)-3-azabicyclo[3.1.0]hexan-6-yl)methyl)-2-hydroxy-2-phenylacetamide] | ≤ 0.01 | –

Source: US20220220128A1, “HETEROCYCLIC COMPOUNDS AS KINASE INHIBITORS, COMPOSITIONS COMPRISING THE HETEROCYCLIC COMPOUND, AND METHODS OF USE THEREOF” (JS Innopharm (Shanghai) Ltd, priority 2019, published 2022)
